Where a name gives a salt, the structure may show the parent alone.
What was measured:
[1] = In-vitro side-by-side diffusion cell study, iontophoresis across human epidermis skin; assay type: in vitro ADME
Description: The efficiency in anode iontophoresis delivery of KCE and that in cathode iontophoresis delivery of ketoprofen were compared with an in-vitro side-by-side diffusion cell study. […] The human cadaver epidermis skin was sandwiched between the two half cells with stratum corneum face the donor chamber. For anode iontophoresis of KCE, KCE chloride salt solution (26.6 μmol/ml) was placed in the donor cell. For cathode iontophoresis of ketoprofen (Kt), […] solution (26.6 μmol/ml) was placed in the donor cell. Phosphate buffer solution (0.15 M at pH 7.4) was placed in the receiver chamber. Constant current 0.2 mA was applied to the diffusion cell. The amount of drug penetrated through the skin was collected in the receive chamber and analyzed with a HPLC. The anode iontophoresis of the cationic prodrug KCE delivered 4 times more drug across the skin than that delivered by the cathode iontophoresis of ketoprofen (see FIG. 4A) from the in-vitro study.
Anode iontophoresis of the cationic ketoprofen prodrug KCE (26.6 μmol/ml) with the presence of phenylephrine (PE) (4.9 μmol/ml) in solution was evaluated with an in-vitro diffusion cell study across a human epidermis skin.

[2] = Passive penetration across human epidermis skin in side-by-side diffusion cells; settings: no electric current, 6 hours
Description: The efficiency in anode iontophoresis delivery of KCE and that in cathode iontophoresis delivery of ketoprofen were compared with an in-vitro side-by-side diffusion cell study. […] The human cadaver epidermis skin was sandwiched between the two half cells with stratum corneum face the donor chamber. […] Phosphate buffer solution (0.15 M at pH 7.4) was placed in the receiver chamber. […]

[3] = In vivo rat study of iontophoresis delivery on dorsal back skin: tissue and plasma drug concentrations; settings: for Drug concentration in the skin: delivered drug (prodrug or ketoprofen); for Concentration of ketoprofen converted from the prodrug in the skin: number in bracket
Protocol: (§1) The anode iontophoresis of ketoprofen cationic prodrugs KCE, KME and cathode iontophoresis of ketoprofen were compared with an in vivo rat study for evaluation of drug penetration into deep tissues. […] A prodrug solution was loaded in the cell. A constant current of 0.4 mA/cm^2 for iontophoresis was applied for 6 hours. At the end of the iontophoresis delivery, the rats were euthanized. The skin of the application site (under the glass cell) was washed with water, tape stripped once to remove residue drug on skin, and then dissected with a biopsy punch for the tissue layers: epidermis and dermis layer (depth 0-3 mm), subcutaneous tissue (fat pad) (3-4 mm), shallow muscle layer (4-6 mm), and deep muscle (6-10 mm). The tissues from the contralateral site were dissected with the same method. In addition, the plasma blood samples were obtained right before the experiment (time 0) and each hour during the experiment. The drug concentrations in the tissue and plasma samples were analyzed with a HPLC.
as §1, with “cationic prodrugs and cathode” for “cationic prodrugs KCE, KME and cathode”, “ketoprofen were also compared with” for “ketoprofen were compared with”, “rat study at 0.4 mA/cm^2 for a shorter duration of 2 hours for evaluation” for “rat study for evaluation”, “applied for 2 hours. At” for “applied for 6 hours. At”
as §1, with “cationic prodrugs and cathode” for “cationic prodrugs KCE, KME and cathode”, “ketoprofen were also compared with” for “ketoprofen were compared with”, “rat study at 0.057 mA/cm^2 for a duration of 6 hours for evaluation” for “rat study for evaluation”, “current of 0.057 mA/cm^2 for” for “current of 0.4 mA/cm^2 for”, “with a HPLC” for “with a HPLC.”
KPE is a prodrug of ketoprofen but with two methyl groups on the nitrogen atom, instead of three methyl groups on the nitrogen atom like KCE and KME. KPE can be presented as a hydrochloride salt. […] Anode iontophoresis delivery of KPE in this aqueous solution at 0.4 mA/cm^2 for a shorter duration of 2 hour was also conducted with the in vivo rat study.

[4] = tested on: melanoma cell (A375); test: In vitro cell viability assay on melanoma cell growth; assay type: cell-based; settings: A375 cells, read-out: 50% inhibition concentration (IC50) on melanoma cell (A375) growth
Description: The drug concentrations in the skin after the iontophoresis delivery of those prodrugs or their parent drug ketoprofen from different iontophoresis conditions are summarized in Table 2. The high drug concentration in the skin can be used for treatment of skin diseases including skin cancers such as melanoma. […] The ketoprofen concentrations in the skin from the iontophoresis delivery was not higher than its IC50 against the melanoma cell growth, but the KCE and KME concentrations in the skin from the anode iontophoresis delivery were higher than their IC50 against the melanoma cell growth. Thus, the anode iontophoresis of the prodrugs can provide high drug accumulation in the skin, and such high drug accumulation in the skin can be used for skin disease treatment.

[5] = Iontophoresis delivery into hairless rat knee joint: tissue and plasma drug concentrations; assay type: in vivo; settings: 0.4 mA/cm^2 for 20 min; 0.5-hour and 2-hour time points
Protocol: Hairless rats were anaesthetized with isoflurane. A rubber disk shape applicator with a sponge that can hold 0.5 ml of the drug solution was used and a button Ag/AgCl electrode was used as current driving electrode. The delivery area is about 1.2 cm^2. After drug solution was loaded into the sponge, the applicator was placed on the knee cap skin and applied an electric current at 0.4 mA/cm^2 for 20 min. A return electrode was attached to the upper tail of the rat. After that, the skin was cleaned thoroughly with wet Kim wipes. The tissues (skin, muscle and joint) at the application site knee and also the contralateral site knee were collected at 30 min, 2 hr, 4 hr or 6 hr from the start of iontophoresis delivery. Three animals were used for each time point. Blood samples were also collected at appropriate time points. The tissue and blood samples were stored at −80° C. until further processing.

[6] = tested on: knee arthritis pain model (monosodium iodoacetate); test: MIA knee osteoarthritis rat model treated with iontophoresis; assay type: in vivo; settings: 0.4 mA/cm^2 for 20 min on days 1, 2, 3 after MIA; versus iontophoresis of NaCl
Protocol: A knee arthritis pain model was established by injection of 50 μl of 60 mg/ml monosodium iodoacetate (MIA) into the left hind knee joint of 12 hairless rats, and they were divided into three groups. The knee diameters of both hind knees were measured. The difference in knee diameters between the left knee and right knee was used as the indicator of the swelling (or inflammation) of the left knee. In addition, the weight bearing of each hind limb was also measured with a Linton incapacitance tester. The percentage of the weight bearing by the left leg was used as an indicator of the pain level in the knee. At 1 day, 2 days, 3 days after the injection of MIA, the left knee of the rats in group 1 was treated with iontophoresis of NaCl to the left hind knee at 0.4 mA/cm^2 for 20 min, group 2 treated with iontophoresis of Kt to the left hind knee at 0.4 mA/cm^2 for 20 min, and group 3 treated with iontophoresis of KCE to the left hind knee at 0.4 mA/cm^2 for 20 min. The knee diameter and weight bearing were measured at day 0 before the MIA injection, and also at day 1, 2, and 3 after the MIA injection but before the iontophoresis treatment. They were also measured at day 4, 6, and 10 after the MIA injection.

[7] = Bioconversion of ketoprofen prodrugs in fresh rat plasma
[8] = Bioconversion of ketoprofen prodrugs in fresh human plasma
[9] = iontophoresis 0.057 mA/cm^2 for 6 hrs
[10] = iontophoresis 0.4 mA/cm^2 for 2 hrs
[11] = iontophoresis 0.4 mA/cm^2 for 6 hrs

CC(C(=O)OCC[N+](C)(C)C)c1cccc(C(=O)c2ccccc2)c1 (stereo not shown) [KCE, Ketoprofen choline ester chloride salt]
Drug delivered across the skin relative to cathode iontophoresis of ketoprofen ([1]; 0.2 mA constant current, 26.6 μmol/ml donor, anode iontophoresis): 4 times
Amount penetrated across the skin by anode iontophoresis, KCE alone versus KCE with phenylephrine ([1]; KCE 26.6 μmol/ml, PE 4.9 μmol/ml, 0.2 mA): slightly higher than that with the PE in the solution
Passive penetration across human epidermis skin [2]: Almost no KCE chloride was penetrated across the human skin in 6 hours
Plasma and contralateral tissue drug concentration ([3]; 0.057 mA/cm^2 for 6 hours): initial lower plasma concentration, but reached a plasma concentration similar to that from iontophoresis of Kt at 6 hours
Tissue drug concentrations / direct penetration at the application site ([3]; 0.057 mA/cm^2 for 6 hours): direct penetration into deeper tissues that is up into the shallow muscles
Plasma drug concentration ([3]; 0.4 mA/cm^2 for 2 hours): lower than that from iontophoresis of ketoprofen
Tissue drug concentrations / direct penetration at the application site ([3]; 0.4 mA/cm^2 for 2 hours): direct penetration into deeper tissues up into the deep muscles
Drug in tissues at the contralateral site ([3]; 0.4 mA/cm^2 for 6 hours): No prodrug was detected in the contralateral tissues
Plasma drug concentration ([3]; 0.4 mA/cm^2 for 6 hours): much lower than that from the iontophoresis of Kt
Tissue drug concentrations / direct penetration at the application site ([3]; 0.4 mA/cm^2 for 6 hours): much higher concentration in the drug application site than the Kt concentration in the contralateral site
Drug concentration in the skin [3, 9]: 887 μmol per kilogram of skin
Concentration of ketoprofen converted from the prodrug in the skin [3, 9]: 905 μmol per kilogram of skin
Drug concentration in the skin [3, 10]: 6719 μmol per kilogram of skin
Concentration of ketoprofen converted from the prodrug in the skin [3, 10]: 2996 μmol per kilogram of skin
Drug concentration in the skin [3, 11]: 25869 μmol per kilogram of skin
Concentration of ketoprofen converted from the prodrug in the skin [3, 11]: 13527 μmol per kilogram of skin
IC50 [4]: 2650 µM
Drug concentrations in the knee joint and surrounding muscle tissues [5]: higher drug concentrations in the knee joint and also surrounding muscle tissues than those from the cathode iontophoresis of Kt
Knee swelling (knee diameter difference left vs right) [6]: significant reduction of the knee swelling
Weight bearing of the left leg (pain indicator) [6]: significant improvement in the weight bearing of the left leg
Bioconversion (half life) in rat plasma [7]: 8.6 min
Bioconversion (half life) in human plasma [8]: <2 min

From patent US20150297718A1, “ION[…] OF CATIONIC PRODRUGS FOR TOPICAL TREATMENT OF MUSCU[…] SKIN DISEASES” (priority 2014, published 2015)
